From patent US10168342B2, “Lipid probes and uses thereof” (THE SCRIPPS RESEARCH INSTITUTE, priority 2015, dated 2019)
Like-named read-outs stand apart in the source and are kept apart here.

Tests used:
[1] = biological target: T1, AEA-DA lipid probe targets in Neuro2a cells (Mus musculus, UniProt P51174)
T1 sequence (P51174 31-430): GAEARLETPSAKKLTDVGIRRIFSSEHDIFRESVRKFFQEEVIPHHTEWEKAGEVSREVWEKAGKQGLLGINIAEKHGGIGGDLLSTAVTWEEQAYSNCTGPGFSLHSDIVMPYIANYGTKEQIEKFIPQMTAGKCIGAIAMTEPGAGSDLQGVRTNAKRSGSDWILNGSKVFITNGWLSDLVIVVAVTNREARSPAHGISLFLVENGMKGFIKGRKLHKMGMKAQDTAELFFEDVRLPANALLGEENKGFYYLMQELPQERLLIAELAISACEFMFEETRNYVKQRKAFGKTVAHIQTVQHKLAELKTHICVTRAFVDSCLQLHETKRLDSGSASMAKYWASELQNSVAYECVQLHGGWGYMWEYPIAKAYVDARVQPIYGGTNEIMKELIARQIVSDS

[2] = biological target: T2, AEA-DA lipid probe targets in Neuro2a cells (Mus musculus, UniProt Q6QD59)
T2 sequence (Q6QD59 1-228): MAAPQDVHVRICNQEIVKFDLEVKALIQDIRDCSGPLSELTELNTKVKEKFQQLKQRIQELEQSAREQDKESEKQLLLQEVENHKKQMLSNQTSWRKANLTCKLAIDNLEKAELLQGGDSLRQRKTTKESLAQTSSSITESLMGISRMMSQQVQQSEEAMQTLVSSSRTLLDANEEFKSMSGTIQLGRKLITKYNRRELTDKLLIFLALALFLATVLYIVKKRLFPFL

[3] = biological target: AEA-DA lipid probe targets in Neuro2a cells (Mus musculus, UniProt Q8VDN2)
[4] = biological target: T3, AEA-DA lipid probe targets in Neuro2a cells (Mus musculus, UniProt Q5SW19)
T3 sequence (Q5SW19 1-1315): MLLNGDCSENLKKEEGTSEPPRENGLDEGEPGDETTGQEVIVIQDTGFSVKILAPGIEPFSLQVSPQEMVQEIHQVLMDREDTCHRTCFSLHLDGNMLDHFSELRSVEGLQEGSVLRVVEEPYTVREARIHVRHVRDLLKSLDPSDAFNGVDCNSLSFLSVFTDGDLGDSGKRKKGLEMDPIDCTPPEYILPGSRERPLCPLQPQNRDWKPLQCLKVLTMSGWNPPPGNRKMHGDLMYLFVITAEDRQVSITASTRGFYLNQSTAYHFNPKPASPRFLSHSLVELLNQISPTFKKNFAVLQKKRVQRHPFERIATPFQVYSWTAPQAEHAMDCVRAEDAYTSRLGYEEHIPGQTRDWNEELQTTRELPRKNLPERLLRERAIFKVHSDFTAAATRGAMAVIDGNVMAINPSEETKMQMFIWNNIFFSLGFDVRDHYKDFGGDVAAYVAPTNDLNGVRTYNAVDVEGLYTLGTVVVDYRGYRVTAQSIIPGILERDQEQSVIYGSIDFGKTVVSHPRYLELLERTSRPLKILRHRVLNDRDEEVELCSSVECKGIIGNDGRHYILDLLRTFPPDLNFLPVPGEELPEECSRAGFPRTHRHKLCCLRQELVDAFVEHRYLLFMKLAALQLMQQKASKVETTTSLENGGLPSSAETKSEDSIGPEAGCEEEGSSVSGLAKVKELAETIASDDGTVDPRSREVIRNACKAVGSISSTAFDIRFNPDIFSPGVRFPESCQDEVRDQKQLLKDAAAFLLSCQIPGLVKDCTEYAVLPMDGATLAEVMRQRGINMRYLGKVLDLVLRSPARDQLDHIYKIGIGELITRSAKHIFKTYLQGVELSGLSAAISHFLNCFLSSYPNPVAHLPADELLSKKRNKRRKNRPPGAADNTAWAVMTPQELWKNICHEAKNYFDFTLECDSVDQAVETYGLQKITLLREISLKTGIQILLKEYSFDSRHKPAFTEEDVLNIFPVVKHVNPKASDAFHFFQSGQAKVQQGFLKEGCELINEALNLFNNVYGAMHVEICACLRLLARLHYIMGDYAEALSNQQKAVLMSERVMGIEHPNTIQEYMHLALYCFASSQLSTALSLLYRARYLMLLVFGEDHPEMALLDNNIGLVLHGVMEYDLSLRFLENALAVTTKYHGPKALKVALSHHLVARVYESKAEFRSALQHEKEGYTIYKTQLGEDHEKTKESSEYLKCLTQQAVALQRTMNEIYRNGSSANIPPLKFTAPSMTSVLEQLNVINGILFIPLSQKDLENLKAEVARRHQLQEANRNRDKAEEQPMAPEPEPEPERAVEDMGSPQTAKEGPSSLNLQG

[5] = biological target: T4, AEA-DA lipid probe targets in Neuro2a cells (Mus musculus, UniProt Q9D938)
T4 sequence (Q9D938 97-188): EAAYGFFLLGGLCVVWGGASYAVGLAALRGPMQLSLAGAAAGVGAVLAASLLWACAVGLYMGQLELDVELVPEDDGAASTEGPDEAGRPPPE

SMILES | SILAC ratio, Acadl ([1]; competitor 25 μM) | SILAC ratio Kiaa0664 ([4]; competitor 25 μM) | SILAC ratio, Bnip1 ([2]; competitor 25 μM) | SILAC ratio Atp1a1 ([3]; competitor 25 μM) | SILAC ratio, Tmem160 ([5]; competitor 25 μM) | also measured
CCCCC/C=C\C/C=C\C/C=C\C/C=C\CCCC(=O)NCCO [AEA, anandamide, reference compound] | – | – | – | – | – | SILAC ratio, Acadl ([1]; competitor 200 μM): 1.1; SILAC ratio, Bnip1 ([2]; competitor 200 μM): 2.1; SILAC ratio Atp1a1 ([3]; competitor 200 μM): 1.4
C=CCN(C)CCCCCCOc1ccc(C(=O)c2ccc(Br)cc2)c(F)c1 [Ro 48-8071, reference compound] | 1.3 | 1.0 | 1.0 | 1.0 | 1.2 | –
CN1CCN(C(=O)c2c(-c3ccccc3)c3cc([N+](=O)[O-])ccc3n2C)CC1 [KML110, (1-Methyl-5-nitro-3-phenyl-1H-indol-2-yl)(4-methylpiperazin-1-yl)methanone] | 1.8 | 2.1 | 1.3 | 1.2 | 1.3 | –
O=C(/C=C/c1cccnc1)NCCCCC1CCN(C(=O)c2ccccc2)CC1 [FK-866, reference compound] | 12.4 | 1.2 | – | 1.2 | 1.2 | –
CN1CCN(C(=O)c2[nH]c3ccc([N+](=O)[O-])cc3c2-c2ccccc2)CC1 [MJN228, (4-Methylpiperazin-1-yl)(5-nitro-3-phenyl-1H-indol-2-yl)methanone] | 1.8 | 2.2 | 1.1 | 1.4 | 1.5 | SILAC ratio, Acadl ([1]; competitor 10 μM): 1.4; SILAC ratio, Acadl ([1]; competitor 50 μM): 2.0; SILAC ratio, Acadl ([1]; competitor 100 μM): 2.4; SILAC ratio Kiaa0664 ([4]; competitor 10 μM): 1.5; SILAC ratio Kiaa0664 ([4]; competitor 50 μM): 1.0; SILAC ratio Kiaa0664 ([4]; competitor 100 μM): 1.9; SILAC ratio, Bnip1 ([2]; competitor 10 μM): 1.2; SILAC ratio Atp1a1 ([3]; competitor 10 μM): 1.4; SILAC ratio Atp1a1 ([3]; competitor 50 μM): 1.1; SILAC ratio Atp1a1 ([3]; competitor 100 μM): 1.2; SILAC ratio, Tmem160 ([5]; competitor 10 μM): 1.2; SILAC ratio, Tmem160 ([5]; competitor 100 μM): 3.5
